The values below are quoted from earlier work in US20120015880A1 (priority 2008, published 2012).

Like-named read-outs stand apart in the source and are kept apart here.

For this series the following is noted: in vivo.

For `NC(=O)CC[C@@H]1NC(=O)[C@H](Cc2ccccc2)NC(=O)[C@H](Cc2ccc(O)cc2)NC(=O)CCSSC[C@@H](C(=O)N2CCC[C@H]2C(=O)N[C@H](CCCN=C(N)N)C(=O)NCC(N)=O)NC(=O)[C@H](CC(N)=O)NC1=O` [desmopressin, 1-desamino-8-D-arginine vasopressin], the bioavailability (as a rule, dose-corrected exposure relative to a reference, in per cent) reads like this: (human) about 100%; (human, inhaled or intranasal) 3-5%; (po) “far less than one percent”. Further, the half life (human) is about 1.5 h. Where the note is “human, inhaled or intranasal”, the “range of Cmax between patients” value is 6-10 fold.
